In patent US9193731B2, “Antimicrobial compounds and methods of making and using the same” (Melinta Therapeutics, Inc., priority 2009, dated 2015):

test system: Escherichia coli strain ATCC25922; assay: standard microdilution assay to determine minimum inhibitory concentrations (MICs); format: cell-based; details: Escherichia coli strain ATCC25922, microdilution
Procedure: Minimum inhibitory concentrations (MICs) are determined by the microdilution method, typically in a final volume of 100 microliters, according to protocols outlined by The Clinical and Laboratory Standards Institute [CLSI; formerly the National Committee for Clinical Laboratory Standards (NCCLS)]. See CLSI: Methods for dilution antimicrobial susceptibility tests for bacteria that grow aerobically; approved standard-fifth edition. Wayne, Pa.: NCCLS; 2000. The assays can be also be performed in microtiter trays according to conventional methodologies as published by the CLSI. See CLSI. Methods for Dilution Antimicrobial Susceptibility Tests for Bacteria That Grow Aerobically; Approved Standard—Seventh Edition. CLSI Document M7-A7 [ISBN 1-56238-587-9] CLSI, 940 West Valley Road, Suite 1400, Wayne Pa. 19087-1898 USA, 2006).
The compounds of the present invention were tested for antimicrobial activity. The compounds were run against Escherichia coli strain ATCC25922 using a standard microdilution assay to determine minimum inhibitory concentrations (MICs). […] A “N/A” means that data is unavailable. It will be recognized by one skilled in the art that the compounds can be assessed against other bacterial organisms and that the presentation of data for activity against Escherichia coli is illustrative and in no way is intended to limit the scope of the present invention. The compounds of the present invention can be assayed against a range of other microorganisms depending upon the performance activity desired to be gathered. Furthermore, the “+”, “−”, and “N/A” representation and the selection of a cutoff value of 16 micrograms/ml is also illustrative and in no way is intended to limit the scope of the present invention.

Structure (SMILES) | E. coli ATCC25922 MIC
N=C(N)NCCCNCc1ccc(-n2cc3cc(-c4cc(CN5Cc6ccccc6C5)cc(N5CCNCC5)c4)[nH]c3nc2=O)cc1 [Compound 1050] | + (a “+” indicates that the compound has an MIC value of 16 micrograms/ml or less)
N=C(N)NCCCNCc1ccc(-n2cc3cc(-c4ccc(S(=O)(=O)N(Cc5ccccc5SC(F)(F)F)C5CCOCC5)cc4)[nH]c3nc2=O)cc1 [Compound 876] | − (a “−” indicates that the compound has an MIC value greater than 16 micrograms/ml)
CS(=O)(=O)NCCc1cc(OCC(F)CN)cc(-c2cc3cn(-c4ccc(CNCCCNC(=N)N)cc4)c(=O)nc3[nH]2)c1 (centres unmarked) [Compound 2031a] | − (a “−” indicates that the compound has an MIC value greater than 16 micrograms/ml)
CN(Cc1cccc(F)c1)C(=O)c1cc(-c2cc3cn(-c4ccc(CNCCCNC(=N)N)cc4)c(=O)nc3[nH]2)cc(N2CCNCC2)c1 [Compound 957] | + (a “+” indicates that the compound has an MIC value of 16 micrograms/ml or less)
NCCCNCCCCCn1cc2cc(-c3ccc(S(=O)(=O)NC4CCNCC4)cc3)[nH]c2nc1=O [Compound 873] | + (a “+” indicates that the compound has an MIC value of 16 micrograms/ml or less)
N=C(N)NCCCNCc1ccc(-n2cc3cc(-c4cc(C(=O)N5CCc6ccccc6C5)cc(N5CCNCC5)c4)[nH]c3nc2=O)cc1 [Compound 1009] | + (a “+” indicates that the compound has an MIC value of 16 micrograms/ml or less)
COC(CN)COc1cccc(-c2cc3cn(-c4ccc(CNCCCNC(=N)N)cc4)c(=O)nc3[nH]2)c1 (centres unmarked) [Compound 1400] | + (a “+” indicates that the compound has an MIC value of 16 micrograms/ml or less)
N=C(N)NCCCNCc1ccc(-n2cc3cc(-c4cc(CCCCN)cc(S(=O)(=O)C(F)(F)F)c4)[nH]c3nc2=O)cc1 [Compound 2055a] | + (a “+” indicates that the compound has an MIC value of 16 micrograms/ml or less)
N=C(N)NCCCNCc1ccc(-n2cc3cc(-c4cc(CCCCN)cc(C(F)F)c4)[nH]c3nc2=O)cc1 [Compound 2087a] | + (a “+” indicates that the compound has an MIC value of 16 micrograms/ml or less)
N=C(N)NCCCNCc1ccc(-n2cc3cc(-c4cc(CCCCN)ccc4Cl)[nH]c3nc2=O)cc1 [Compound 2073a] | + (a “+” indicates that the compound has an MIC value of 16 micrograms/ml or less)
N=C(N)NCCCNCc1ccc(-n2cc3cc(-c4cccc(S(=O)(=O)N(CCn5nccc5N)C5CCNCC5)c4)[nH]c3nc2=O)cc1 [Compound 1262] | − (a “−” indicates that the compound has an MIC value greater than 16 micrograms/ml)
CC(CCN)Oc1cccc(-c2cc3cn(-c4ccc(CNCCCNC(=N)N)cc4)c(=O)nc3[nH]2)c1 (centres unmarked) [Compound 1414] | + (a “+” indicates that the compound has an MIC value of 16 micrograms/ml or less)
N=C(N)NCCCNCc1ccc(-n2cc3cc(-c4ccc(S(=O)(=O)N(CC5CN(Cc6ccccc6)CCO5)C5CCNCC5)cc4)[nH]c3nc2=O)cc1 (centres unmarked) [Compound 988] | + (a “+” indicates that the compound has an MIC value of 16 micrograms/ml or less)
N=C(N)NCCCNCc1ccc(-n2cc3cc(-c4cc(C(=O)NCC(F)(F)F)cc(N5CCNCC5)c4)[nH]c3nc2=O)cc1 [Compound 971] | + (a “+” indicates that the compound has an MIC value of 16 micrograms/ml or less)
CSc1cc(CCCCN)cc(-c2cc3cn(-c4ccc(CNCCCNC(=N)N)cc4)c(=O)nc3[nH]2)c1 [Compound 2066a] | + (a “+” indicates that the compound has an MIC value of 16 micrograms/ml or less)
CC(N)CCOc1cccc(-c2cc3cn(-c4ccc(CNCCCNC(=N)N)cc4)c(=O)nc3[nH]2)c1 (centres unmarked) [Compound 1440] | + (a “+” indicates that the compound has an MIC value of 16 micrograms/ml or less)
N=C(N)NCCCNCc1ccc(-n2cc3cc(-c4ccc(C[C@H](N)CO)cc4)[nH]c3nc2=O)cc1 [Compound 907] | + (a “+” indicates that the compound has an MIC value of 16 micrograms/ml or less)
N=C(N)NCCCNCc1ccc(-n2cc3cc(-c4cc(C(=O)Nc5nc(C(F)(F)F)cs5)cc(N5CCNCC5)c4)[nH]c3nc2=O)cc1 [Compound 1061] | + (a “+” indicates that the compound has an MIC value of 16 micrograms/ml or less)
N=C(N)NCCCNCc1ccc(-n2cc3cc(-c4ccc(S(=O)(=O)N(Cc5ccc(Cl)c(SC(F)(F)F)c5)C5CCNCC5)cc4)[nH]c3nc2=O)cc1 [Compound 759] | + (a “+” indicates that the compound has an MIC value of 16 micrograms/ml or less)
N=C(N)NCCCNCc1ccc(-n2cc3cc(C4CCN(CC(O)CN)C4)[nH]c3nc2=O)cc1 (centres unmarked) [Compound 1456] | + (a “+” indicates that the compound has an MIC value of 16 micrograms/ml or less)
N=C(N)NCCCNCc1ccc(-n2cc3cc(-c4cc(C(=O)NCC5CCCO5)cc(N5CCNCC5)c4)[nH]c3nc2=O)cc1 (centres unmarked) [Compound 1029] | + (a “+” indicates that the compound has an MIC value of 16 micrograms/ml or less)

same assay, conditions: Escherichia coli, ATCC25922, Escherichia coli strain ATCC25922, microdilution; read-out: E. coli ATCC25922 MIC

MIC | Structure (SMILES)
< 16 µg/mL | NCCCCCN1CC=C(n2cc3cc(-c4ccc(C(=O)NC5CCNCC5)cc4)[nH]c3nc2=O)CC1 [Compound 507]
> 16 µg/mL | N=C(N)NCCCNCc1ccc(-n2cc3cc(-c4cccc(NCC(=O)N5CCOCC5)c4)[nH]c3nc2=O)cc1 [Compound 637]
> 16 µg/mL | O=c1nc2[nH]c(-c3ccc(S(=O)(=O)NC4CCNCC4)cc3)cc2cn1-c1ccccc1OCC1CCNCC1 [Compound 1165]
> 16 µg/mL | CNCc1ccc(-n2cc3cc(-c4ccc(S(=O)(=O)N(CCCc5cccc(OC)c5)C5CCNCC5)cc4)[nH]c3nc2=O)cc1 [Compound 1034]
> 16 µg/mL | NCc1ccc(-n2cc3cc(-c4cccc(OC[C@H](F)CN)c4)[nH]c3nc2=O)cc1 [Compound 1443]
> 16 µg/mL | NCCCc1cccc(-c2cc3cn(-c4ccc(C(N)=O)cc4)c(=O)nc3[nH]2)c1 [Compound 2056a]
< 16 µg/mL | N=C(N)NCCCNCc1ccc(-c2cn3cc(-c4ccc(C(=O)NCCCN5CCNCC5)cc4)[nH]c3nc2=O)cc1 [Compound 722]
> 16 µg/mL | NCCCOCc1ccc(-c2cn3cc(-c4ccc(Br)cc4)[nH]c3nc2=O)cc1 [Compound 902]
< 16 µg/mL | NCCCNCc1ccc(-n2cc3cc(-c4cc(C(=O)Nc5ccc(F)cc5)cc(N5CCNCC5)c4)[nH]c3nc2=O)cc1 [Compound 760]
> 16 µg/mL | NCCCc1cccc(-c2cc3cn(-c4ccc(CN)cc4)c(=O)nc3[nH]2)c1 [Compound 2057a]
> 16 µg/mL | NCCCNCc1ccc(-c2cn3cc(-c4ccc(C(=O)N5CCS(=O)(=O)CC5)cc4)[nH]c3nc2=O)cc1 [Compound 698]
< 16 µg/mL | N=C(N)NCCCNCc1ccc(-c2cn3cc(-c4ccc(C5=CCN(C(=N)N)CC5)cc4)[nH]c3nc2=O)cc1 [Compound 650]
< 16 µg/mL | N=C(N)NCCCN(CCCN)Cc1ccc(-n2cc3cc(-c4ccc(C(=O)NC5CCNCC5)cc4)[nH]c3nc2=O)cc1 [Compound 217]
> 16 µg/mL | N#CCCCOc1cccc(-c2cc3cn(-c4ccc(CN)cc4)c(=O)nc3[nH]2)c1 [Compound 1151]
> 16 µg/mL | NCCCOc1cccc(-c2cc3cn(-c4ccc(CN)cc4)c(=O)nc3[nH]2)c1 [Compound 1087]
> 16 µg/mL | NCCCN(CCCN)Cc1ccc(-n2cc3cc(Cn4nnc5ccccc54)[nH]c3nc2=O)cc1 [Compound 182]
> 16 µg/mL | O=C(NC1CCNCC1)c1ccc(-c2cc3cn(-c4ccc(CNCCCF)c(F)c4)c(=O)nc3[nH]2)c(F)c1 [Compound 280]
> 16 µg/mL | CO[C@H](CN)COc1cccc(-c2cc3cn(-c4ccc(CN)cc4)c(=O)nc3[nH]2)c1 [Compound 1428]
> 16 µg/mL | NCCCNCc1ccc(-n2cc3cc(COc4ccccc4)[nH]c3nc2=O)cc1 [Compound 626]
< 16 µg/mL | N=C(N)NCCCNCc1ccc(-n2cc3cc(CCS(=O)(=O)C4CCNCC4)[nH]c3nc2=O)cc1 [Compound 1240]
< 16 µg/mL | N=C(N)NCCCNCc1ccc(-n2cc3cc(-c4ccc(S(=O)(=O)N(C5CCNCC5)C5CCOCC5)cc4)[nH]c3nc2=O)cc1 [Compound 727]
> 16 µg/mL | NCc1ccc(-n2cc3cc(-c4cccc(OCCNC(N)=O)c4)[nH]c3nc2=O)cc1 [Compound 1142]
> 16 µg/mL | CN(C)CCOc1ccccc1-c1cc2cn(-c3ccc(CN)cc3)c(=O)nc2[nH]1 [Compound 1111]
< 16 µg/mL | NCCCNCc1ccc(-n2cc3cc(-c4cccc(NCC(=O)N5CCNCC5)c4)[nH]c3nc2=O)cc1 [Compound 644]
> 16 µg/mL | NCCCNC(=O)CCn1cc2cc(-c3ccc(S(=O)(=O)N[C@@H]4CCCNC4)cc3)[nH]c2nc1=O [Compound 1287]
> 16 µg/mL | NC1CCN(Cc2ccc(-n3cc4cc(-c5ccc(S(=O)(=O)N6CCN7CCC6CC7)c(F)c5)[nH]c4nc3=O)cc2)CC1 [Compound 264]

Structure (SMILES) | MIC
NCCCN(CCCN)Cc1ccc(-n2cc3cc(-c4ccc(C(=O)NC5CN6CCC5CC6)cc4)[nH]c3nc2=O)cc1 (centres unmarked) [Compound 196] | < 16 µg/mL
N=C(N)NCCCN1CC=C(c2cn3cc(-c4ccc(F)cc4)[nH]c3nc2=O)CC1 [Compound 566] | > 16 µg/mL
NCCCN1CC=C(c2cn3c(nc2=O)[nH]c2ccccc23)CC1 [Compound 587] | > 16 µg/mL
